We go through 2 compounds from patent US20070105160A1, “Detection of intracellular enzyme complex” (DiscoveRx, priority 2005, published 2007).

In assay [1] the target is glucocorticoid receptor (GR). Description: PathHunter GR translocation EFC assay, antagonist mode (pre-incubation before agonist). The class given is cell-based, human. Particulars: pre-incubated 1 hour. How it is done:
(§1) • 5 mM Potassium phosphate (dibasic) • 5 mM Potassium phosphate (monobasic) • 150 mM Sodium Chloride • 10 mM Magnesium Acetate • 2% CHAPS • pH6.9 Reagent Buffer/Substrate Formulation/Mixture Used in the Assay: • 1 part Galacton Star (ABI) • 5 parts Emerald II enhancer (ABI) • 19 parts Lysis buffer with 2% CHAPS (DX) Assay Protocol (96 Well Assay Format) • 1. 10,000 CHO-EA+GR-PL cells/well in a volume of 100 μL are plated in a Costar 96 well white, clear bottom plate and allowed to adhere overnight at 37° C./5% CO2 in an incubator. • 2. […] The reaction is incubated for 3-4 hours in a 37° C./5% CO2 incubator. • 4. To the reaction, equal aliquots from 50 mL of reagent solution are added to the wells. • 5. The plate is read on a standard multiwell plate reader that can measure luminescent activity. (e.g., Wallac Victor II or Packard Lumicount) after 30 and 60 minutes.
The glucocorticoid receptor (GR) was subcloned by using a pCMV-GR-PL construct generated by Panomics, Inc. as pcr template, adding Bgl 2 and Kpn I sites at the 5′ and 3′ ends respectively. The GR sequence was based on and confirmed to match the RefSeq NM_000176 for the human GR. […] This plasmid was transiently transfected into a stable CHO-K1+EA-NLS/NRS expressing cell line. Clonal selection for cells expressing both EA-NLS/NRS and GR-PL was performed as described above except the cells were subjected to double antibiotic selection (hygromycin and Geneticin/G418).
(§2) 10,000 cells/well were plated in a white Costar® 96 well plate and allowed to adhere overnight. […] To the reaction, 50 μL of cell lysis/substrate solution was added and the plate was read in a Wallace Victor 2 plate reader after 60 minutes. […] Antagonist studies were also performed using titrating amounts of geldenamycin (1-1000 nM) pre-incubated with the PathHunter cells for 1 hour prior to being treated with an agonist (at the EC80 concentration) for 3 hours and the EFC activity was measured.

Assay [2] has as its target T1, glucocorticoid receptor (GR) (Homo sapiens, UniProt P04150).
T1 construct: expressed in transfected cells; host or cells: CHO-K1 stably expressing EA-NLS/NRS (CHO-EA+GR-PL, 'PathHunter' cells)
T1 sequence (P04150 1-777): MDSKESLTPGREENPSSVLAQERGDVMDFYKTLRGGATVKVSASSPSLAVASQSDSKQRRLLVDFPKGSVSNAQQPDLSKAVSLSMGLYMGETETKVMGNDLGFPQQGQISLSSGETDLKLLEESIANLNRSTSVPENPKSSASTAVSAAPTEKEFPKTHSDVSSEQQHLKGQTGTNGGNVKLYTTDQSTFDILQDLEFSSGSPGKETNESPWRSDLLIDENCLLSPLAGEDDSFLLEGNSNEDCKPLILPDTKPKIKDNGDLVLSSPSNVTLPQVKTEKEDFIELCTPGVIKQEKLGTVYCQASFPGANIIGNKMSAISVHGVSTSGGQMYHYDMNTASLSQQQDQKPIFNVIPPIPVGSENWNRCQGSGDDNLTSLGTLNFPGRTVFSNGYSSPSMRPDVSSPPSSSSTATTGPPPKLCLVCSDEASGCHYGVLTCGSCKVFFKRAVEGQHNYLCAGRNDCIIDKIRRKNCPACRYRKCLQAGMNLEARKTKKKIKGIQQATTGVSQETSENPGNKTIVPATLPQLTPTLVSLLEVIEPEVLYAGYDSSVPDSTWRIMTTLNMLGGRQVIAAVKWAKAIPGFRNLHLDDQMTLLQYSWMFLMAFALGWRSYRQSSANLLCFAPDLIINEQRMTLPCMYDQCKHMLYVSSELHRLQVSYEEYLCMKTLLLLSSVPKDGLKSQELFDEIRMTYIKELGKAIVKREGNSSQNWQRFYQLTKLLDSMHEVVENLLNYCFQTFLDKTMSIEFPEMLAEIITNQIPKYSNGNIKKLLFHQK
Description: PathHunter GR translocation EFC assay, agonist mode, chemiluminescent detection. Particulars: CHO-EA+GR-PL (PathHunter) cells, agonist 3 hours, plate read after 60 minutes, FIG. 1. The class given is cell-based. How it is done: as §1, with “minutes. […]” for “minutes.”
as §2

Molecules are shown by their SMILES.

Take `COC1=C2C[C@@H](C)C[C@H](OC)[C@H](O)[C@@H](C)/C=C(\C)[C@H](OC(N)=O)[C@@H](OC)/C=C\C=C(/C)C(=O)NC(=CC1=O)C2=O` [geldenamycin]: the 50% inhibitory concentration (IC50) in assay [1] (then 1 μM hydrocortisone as agonist for 3 hours) worked out at 0.0238 µM; in assay [1] (then 1 μM prednisolone as agonist for 3 hours), 0.0223 µM; in assay [1] (then dexamethasone treatment (EC80 concentration) for 3 hours, FIG. 2), 0.0116 µM.

For the compound `C[C@]12C=CC(=O)C=C1CC[C@H]1[C@@H]3C[C@@H](O)[C@](O)(C(=O)CO)[C@@]3(C)C[C@H](O)[C@@]12F` [triamcinolone], the EC50 in assay [2] is 0.0629 µM.
